Where “and” joins values, the source holds several entries; their conditions need not be identical. Equal entries are not always repeated.

Test [1] addresses T1, rePON1 (G3H8) (Oryctolagus cuniculus, UniProt P27170, A301G/A320V/A67S/G19R/H177S/I126T/I187A/K138S/K151R/K297E/K93E/L143V/L7P/M130L/M341L/P82S/S101G/V343I).
T1 construct: leaving the intact, 355 amino acids, PON1 protein without any additions; made in house; host or cells: E. coli Origami B (DE3), truncated pET32 vector without Trx, His and S tags
The test is described as follows: biochemical.

Test [2] concerns the target T2, HuPON1 purified from serum (Homo sapiens, UniProt P27169).
T2 construct: measured for hydrolysis of phenylacetate by serum huPON1; host or cells: human serum
The note with it: read-out: Ki for 2-hydroxyquinoline inhibition of phenyl acetate hydrolysis by HuPON1 purified from serum; cited from earlier work.

T1 sequence (P27170 with tags, fused parts or gaps with the stated changes): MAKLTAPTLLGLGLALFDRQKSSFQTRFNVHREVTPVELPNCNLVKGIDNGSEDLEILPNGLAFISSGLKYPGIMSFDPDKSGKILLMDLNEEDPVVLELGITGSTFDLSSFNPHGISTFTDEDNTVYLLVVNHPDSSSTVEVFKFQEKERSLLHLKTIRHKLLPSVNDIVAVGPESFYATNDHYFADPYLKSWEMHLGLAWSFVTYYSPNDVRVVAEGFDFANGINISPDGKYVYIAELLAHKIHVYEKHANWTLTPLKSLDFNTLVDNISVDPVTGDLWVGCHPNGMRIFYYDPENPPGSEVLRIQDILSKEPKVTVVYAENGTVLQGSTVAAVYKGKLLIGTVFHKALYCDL
T2 sequence (P27169 whole entry): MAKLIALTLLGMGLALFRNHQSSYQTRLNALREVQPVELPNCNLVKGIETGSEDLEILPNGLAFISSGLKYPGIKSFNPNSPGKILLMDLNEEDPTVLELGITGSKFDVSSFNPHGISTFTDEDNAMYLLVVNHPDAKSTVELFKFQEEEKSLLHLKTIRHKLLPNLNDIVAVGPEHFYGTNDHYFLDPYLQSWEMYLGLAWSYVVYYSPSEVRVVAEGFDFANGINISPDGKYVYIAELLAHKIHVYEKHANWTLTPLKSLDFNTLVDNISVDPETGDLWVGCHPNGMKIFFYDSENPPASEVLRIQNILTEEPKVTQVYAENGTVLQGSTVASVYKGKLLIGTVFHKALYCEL

In the case of `Oc1ccc2ccccc2n1` [2-hydroxyquinoline], the Ki (as a rule, a dissociation constant, usually derived from enzyme kinetics or from competition with a known ligand) in test [1] (Inhibition constant (Ki)) is 11 µM and 3 µM and 4.2 µM; in test [1] (inhibition constants for phenyl-acetate, paraxon and L-HcyT hydrolysis) it was 3 to 11 µM; in test [2], about 5 µM.

The record behind these values is patent US7786071B2 (priority 2003, dated 2010).
